# Measurements from patent US20230405011A1, “COMBINATION THERAPY FOR THE TREATMENT OF CANCER” (Novartis AG, priority 2013, published 2023).
# Assay: Phase Ib/II trial of Example 5: pharmacokinetics
# Type: in vivo
EVE exposure at steady state (in vivo),effect of EVE on Compound A1 exposure (preliminary PK analysis),"absorption (steady state (C1D15), Compound A1+EVE+EXE)",Compound
increased,,,"CO[C@H]1C[C@@H]2CC[C@@H](C)[C@@](O)(O2)C(=O)C(=O)N2CCCC[C@H]2C(=O)O[C@H]([C@H](C)C[C@@H]2CC[C@@H](OCCO)[C@H](OC)C2)CC(=O)[C@H](C)/C=C(\C)[C@@H](O)[C@@H](OC)C(=O)[C@H](C)C[C@H](C)/C=C/C=C/C=C/1C [EVE, Everolimus, reference compound]"
,does not affect,rapidly absorbed,"CN(C)C(=O)c1cc2cnc(Nc3ccc(N4CCNCC4)cn3)nc2n1C1CCCC1 [Compound A1, 7-Cyclopentyl-2-(5-piperazin-1-yl-pyridin-2-ylamino)-7H-pyrrolo[2,3-d]pyrimidine-6-carboxylic acid dimethylamide]"
